Reference: publication PMC9171587, “Novel α-Amylase Inhibitor Hemi-Pyocyanin Produced by Microbial Conversion of Chitinous Discards” (Marine Drugs, 2022)

Target: T1, Porcine pancreatic α-amylase (Sus scrofa, UniProt P00690)
T1 construct: gene AMY2
T1 sequence (P00690 16-511): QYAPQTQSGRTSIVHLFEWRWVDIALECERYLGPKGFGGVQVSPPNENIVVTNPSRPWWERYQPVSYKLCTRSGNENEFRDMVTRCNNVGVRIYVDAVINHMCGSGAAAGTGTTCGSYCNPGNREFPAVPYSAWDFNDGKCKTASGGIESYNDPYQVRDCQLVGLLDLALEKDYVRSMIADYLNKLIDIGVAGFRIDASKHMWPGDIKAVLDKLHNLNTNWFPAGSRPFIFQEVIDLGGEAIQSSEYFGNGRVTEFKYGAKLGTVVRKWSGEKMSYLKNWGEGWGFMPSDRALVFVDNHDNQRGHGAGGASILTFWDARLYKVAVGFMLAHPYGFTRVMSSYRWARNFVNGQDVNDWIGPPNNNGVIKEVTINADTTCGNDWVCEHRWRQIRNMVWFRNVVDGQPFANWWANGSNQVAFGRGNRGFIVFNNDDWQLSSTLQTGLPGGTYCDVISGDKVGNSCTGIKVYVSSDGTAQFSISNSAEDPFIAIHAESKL
Experiment: starch hydrolysis assay (Bernfeld, reducing sugar at OD540) with commercial enzyme type VI-B
Assay type: biochemical

Oc1cccc2nc3ccccc3nc12 [SF-1, hemi-pyocyanin]
IC50: 15.8 µM
